The text below walks through data of patent US20180110754A1, “CENICRIVIROC FOR THE TREATMENT OF FIBROSIS” (Tobira Therapeutics, Inc., priority 2015, published 2018).

Data set [1] relates to thioglycollate-induced peritonitis (monocyte/macrophage and leukocyte recruitment). The data set is described as follows: Mouse thioglycollate-induced peritonitis model: peritoneal lavage cell counts, body weight. The format is in vivo. Here is the method:
Summary: The mouse thioglycollate induced peritonitis model is a commonly used preclinical model to assess the recruitment of […] cells and to assess the activation of macrophages.
Dexamethasone was used as a positive control in this experiment as it is a corticosteroid known to reduce inflammation in a variety of animal models. Murine inflammation models indicate that the effective dose range for dexamethasone, when administered orally, is 0.3 to 3 mg/kg QD. On this basis, an intermediate dose of 1 mg/kg was chosen for this particular study.
The lavage was repeated with a second injection of 2.5 mL via the initial puncture site and the samples were pooled for each animal.
The lavage fluid was placed on wet ice pending processing for total and differential cell counts using the Advia analyzer. Following the lavage collection, a blood sample (0.7 mL) was collected from each mouse by intracardiac puncture or from the vena cava (collection time was recorded). 0.5 mL of blood was placed in an EDTA tube, transferred to clinical pathology and analyzed for differential cell counts using the Advia analyzer. 0.2 mL of blood was placed in a K2EDTA tube and processed to plasma. The plasma was collected by centrifugation (3000 rpm for 10 minutes at 4° C.) and placed on dry ice. […] After blood collection, the animals were then exsanguinated by sectioning of the abdominal aorta.
Statistical Analysis: One-way ANOVA with post-hoc Dunnett's statistical analysis was performed on differential cell counts obtained from lavage and blood samples. The analysis was performed in comparison to Group 2.

The target of data set [2] is T1, CCR2 (Homo sapiens, UniProt P41597).
T1 construct: endogenous in cells; host or cells: monocytes within PBMCs from HIV+ and HIV- subjects
T1 sequence (P41597 1-360 isoform P41597-2): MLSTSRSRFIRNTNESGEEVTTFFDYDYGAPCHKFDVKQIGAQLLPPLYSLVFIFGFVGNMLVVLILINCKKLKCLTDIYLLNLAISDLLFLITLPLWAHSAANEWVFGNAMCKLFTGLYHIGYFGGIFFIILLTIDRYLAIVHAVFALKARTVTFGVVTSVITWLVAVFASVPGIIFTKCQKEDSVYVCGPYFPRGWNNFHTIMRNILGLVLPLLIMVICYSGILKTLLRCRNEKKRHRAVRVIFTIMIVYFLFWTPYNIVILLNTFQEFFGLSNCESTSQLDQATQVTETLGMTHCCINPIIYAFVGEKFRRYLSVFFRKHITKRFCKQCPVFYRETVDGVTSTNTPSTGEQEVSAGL
As to the kind of experiment: MCP-1-induced CCR2 internalization / CCR2 receptor occupancy on monocytes (flow cytometry). The format is cell-based. Here is the method:
(§1) The capacity of each drug to inhibit CCR5 or CCR2 internalization was evaluated. Cell-surface expression of CCR5 and CCR2 was assessed by flow cytometry, and fluorescence values were converted into molecules of equivalent soluble fluorescence (MESF).
(Flow cytometry measures light scatter and fluorescence of single cells or particles in a stream.)

For data set [3], the target named is T2, CCR5 (Homo sapiens, UniProt P51681). The data set is described as follows: Inhibition of chemokine binding to CCR5-expressing CHO cells.
Data set [4] can be described thus: Solubility of cenicriviroc mesylate in solvents and aqueous solution. It counts as physicochemical. From the text: In one embodiment, the acid addition salt of cenicriviroc is cenicriviroc mesylate, e.g., (5)-8-[4-(2-Butoxyethoxy)phenyl]-1-isobutyl-N-(4-{[(1-propyl-1H-imidazol-5-yl)methyl]sulfinyl}phenyl)-1,2,3,4-tetrahydro-1-benzazocine-5-carboxamide monomethanesulfonoate. In one embodiment, the cenicriviroc mesylate is a crystalline material, such as a pale greenish-yellow crystalline powder.

The target of data set [5] is T2, CCR5. As to the kind of experiment: RANTES-induced CCR5 internalization / CCR5 receptor occupancy in PBMCs (flow cytometry). It counts as cell-based. The protocol:
as §1

Data set [6] concerns HIV-1 BaL. As to the kind of experiment: Extracellular virus (viral RNA, p24) in culture fluids of PM-1 cells exposed to HIV-1 BaL. The conditions noted are these: 4 hrs post-infection, CVC 20 nM, MVC 50 nM. The format is cell-based. The source says: Cells. PM-1 cells that express CD4, CCR5, and CXCR4 were maintained in RPMI-1640 medium containing 10% fetal bovine serum (R10 medium) at 37C, 5% CO2. 293T cells used for transfection were maintained in DMEM at 10% FBS, L-glutamine, and antibiotics (D10 medium) at 37C, 5% CO2. Virus Stocks. HIV-1 BaL virus was produced by transfecting 293T cells with the plasmid pWT/BaL. Lipofectamine 2000 was used as a transfection agent. Culture supernatants were collected at 48 hrs post-transfection, filtered through a 0.45 μm pore filter, and treated with 50 units of benzonase per ml of virus stock for 20 minutes at 37C to remove contaminating plasmid DNA. Virus stocks were frozen at −80C to halt benzonase activity. Benzonase-treated virus stocks were propagated in cord blood mononuclear cells (CBMCs). CBMCs were stimulated for 72 h with phytohemagluttinin (PHA-M) in R10 medium prior to infection with HIV-1 BaL. The viral amplification culture was subsequently grown in R10 supplemented with interleukin 2 (IL-2) and incubated at 37C, 5% CO2.
Both drugs were incubated with PM-1 cells for 1 hr at 37 C prior to the addition of virus. 500 ng of p24 antigen of HIV-1 BaL were incubated per 5×10^5 cells in 1 ml of R10 media. Virus only controls, described as “no cell” in the text, were used to measure viral decay. Viral adsorption was measured in the no-drug controls, whereby 500 ng of p24 Ag of HIV-1 Bal were added per 5×10^5 PM-1 cells that were pre-incubated at 37 C for 1 hr in the absence of drug treatment. Each drug treatment and control was performed in duplicate. Viral RNA was extracted from 140 μl of supernatant fluid using the QIAamp Viral RNA mini kit according to manufacturer's instructions. Samples were stored at −80 C until analysis. Supernatant viral loads were measured using quantitative real-time reverse transcription PCR (qRT-PCR) with the primers US1SSF (5′-[…]-3′), US1SSR (5′-[…]-3′) and US1SS probe (5′-(FAM) […]) and the Invitrogen qRT-PCR Supermix Kit. Cycling parameters were: 50° C. for 15 minutes, 95° C. for 10 minutes, followed by 50 cycles of 95° C. for 15 seconds, and 60° C. for 1 minute. All values are the result of replicate testing over 2 independent experiments. RNA copy number was quantified by use of 10-fold serial dilutions of pBaL/wt to generate standard curves for each assay and calibrated against samples with known copy numbers from previous studies.

The test system of data set [7] is HIV-1 BaL. As to the kind of experiment: Intracellular strong-stop HIV DNA in PM-1 cells infected with HIV-1 BaL. The conditions noted are these: 4 hrs, CVC 20 nM, MVC 50 nM. The format is cell-based. Here is the method:
Both drugs were incubated with PM-1 cells for 1 hr at 37 C prior to the addition of virus. 500 ng of p24 antigen of HIV-1 BaL were incubated per 5×10^5 cells in 1 ml of R10 media. Virus only controls, described as “no cell” in the text, were used to measure viral decay. Viral adsorption was measured in the no-drug controls, whereby 500 ng of p24 Ag of HIV-1 Bal were added per 5×10^5 PM-1 cells that were pre-incubated at 37 C for 1 hr in the absence of drug treatment. Each drug treatment and control was performed in duplicate. Viral RNA was extracted from 140 μl of supernatant fluid using the QIAamp Viral RNA mini kit according to manufacturer's instructions. Samples were stored at −80 C until analysis. Supernatant viral loads were measured using quantitative real-time reverse transcription PCR (qRT-PCR) with the primers US1SSF (5′-[…]-3′), US1SSR (5′-[…]-3′) and US1SS probe (5′-(FAM) […]) and the Invitrogen qRT-PCR Supermix Kit. […] RNA copy number was quantified by use of 10-fold serial dilutions of pBaL/wt to generate standard curves for each assay and calibrated against samples with known copy numbers from previous studies.
Intracellular DNA qPCR. Total DNA was extracted, quantified, and stored at −80 C. Intracellular strong-stop DNA levels were quantified with the US1SS primer/probe set described above. […]

T2 sequence (P51681 whole entry): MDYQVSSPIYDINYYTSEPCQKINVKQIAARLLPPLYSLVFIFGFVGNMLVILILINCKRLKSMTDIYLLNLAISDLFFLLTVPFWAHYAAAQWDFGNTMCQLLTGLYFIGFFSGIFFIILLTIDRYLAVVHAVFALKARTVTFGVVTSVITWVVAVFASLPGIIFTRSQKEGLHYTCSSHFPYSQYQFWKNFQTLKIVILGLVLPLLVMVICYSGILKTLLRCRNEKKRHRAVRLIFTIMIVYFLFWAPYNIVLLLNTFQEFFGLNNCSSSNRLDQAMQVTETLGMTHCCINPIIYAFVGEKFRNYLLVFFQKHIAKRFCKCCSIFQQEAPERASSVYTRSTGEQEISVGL

`C[C@@H]1C[C@H]2[C@@H]3CCC4=CC(=O)C=C[C@]4(C)[C@@]3(F)[C@@H](O)C[C@]2(C)[C@@]1(O)C(=O)CO` [Dexamethasone, dexamethasone, reference compound]: in data set [1] (Group 7, 1 mg/kg oral), the “Decrease in monocytes in peritoneal lavage vs thioglycollate control” value came out at 38.1% and the “Decrease in total leukocyte counts in peritoneal lavage vs thioglycollate control” value was 26.6%. For the same compound, the “Body weights, Days 1 to 6” value in data set [1] (mouse, in vivo) is “decreased slightly”.

Take `CSc1ccc(C(=O)N[C@@H]2CCCC[C@@H]2NC(=O)CNC(=O)c2cc(C(F)(F)F)ccc2NC(=O)NC(C)C)cc1` [BMS-22, reference compound]: the “Concentration required to reach >80% CCR2 receptor occupancy (average)” value in data set [2] was 18 nM. The CCR2 cell-surface expression result in data set [2] (in the absence of MCP-1) is reported as “slightly increased CCR2 cell-surface expression”.

What is called IC50 is the midpoint of a concentration-inhibition curve. For `CCCCOCCOc1ccc(-c2ccc3c(c2)C=C(C(=O)Nc2ccc(S(=O)(=O)Cc4cncn4CCC)cc2)CCCN3CC(C)C)cc1` [M-I], the “IC50 relative to the IC50 of CVC (RANTES binding to CCR5)” value in data set [3] is “approximately 2 fold”. Moreover, in data set [3] (CHO cells, read-out: IC50, inhibition of RANTES binding to CCR5-expressing cells), the IC50 was 6.5 nM.

In the case of `CCCCOCCOc1ccc(-c2ccc3c(c2)C=C(C(=O)Nc2ccc(SC)cc2)CCCN3CC(C)C)cc1` [M-II], the “IC50, inhibition of RANTES binding to CCR5-expressing cells” value in data set [3] (CHO cells) is recorded as “no effect on binding of RANTES”.

As for “(5)-8-[4-(2-Butoxyethoxy)phenyl]-1-isobutyl-N-(4-{[(1-propyl-1H-imidazol-5-yl)methyl]sulfinyl}phenyl)-1,2,3,4-tetrahydro-1-benzazocine-5-carboxamide monomethanesulfonoate [cenicriviroc mesylate]”, the Solubility entry in data set [4] (99.5% ethanol) is reported as “sparingly soluble”; in data set [4] (acetonitrile, 1-octanol, tetrahydrofuran), “slightly soluble”; in data set [4] (ethyl acetate and diethylether) it was “practically insoluble”; in data set [4] (glacial acetic acid, methanol, benzyl alcohol, dimethylsulfoxide, N,N-dimethylformamide) it was “freely soluble”; in data set [4] (pyridine and acetic anhydride), “soluble”. Besides, the “Solubility in aqueous solution” value in data set [4] (pH 1 to 2) is on record as “freely soluble”; in data set [4] (pH 3) it was “sparingly soluble”; in data set [4] (pH 4 to 13 and in water) it was “practically insoluble”.

For Maraviroc [MVC, reference compound], in data set [5] (CD4+ T cells), the “CCR5 receptor occupancy at saturation” value was around 86% and the “Effective concentration at which saturation of CCR5 was reached” value turned out to be 12.5 nM. Besides, in data set [5] (CD8+ T cells), the “CCR5 receptor occupancy at saturation” value is reported as around 87% and the “Effective concentration at which saturation of CCR5 was reached” value was determined as 12.5 nM. The “Cell-surface expression of CCR5” value in data set [5] (in the absence of RANTES) is reported as “increased cell-surface expression of CCR5”. For the same compound, the “p24 antigen level in culture fluids” value in data set [6] (baseline 506 ng/ml) is 520 ng/mL. Further, the “Viral RNA in culture fluids” value in data set [6] (baseline 1.19×10^10) is reported as 1.67×10^10 copies/ml. The “Relative intracellular strong-stop HIV DNA level compared to no drug control” value in data set [7] is 0.02.
